Tested on: α7 integrin promoter
Experiment: muscle cell-based assay: α7βgal+/− myoblasts/myotubes, LacZ reporter, β-galactosidase cleavage of FDG
Parameters: species or system mouse; Results in α7+/− β-galactosidase assay: scale not given here
Settings: Myoblasts
How it was run: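 Fluorescein generated from FDG by β-galactosidase reports α7 integrin promoter activity in differentiated myoblasts from α7+/− LacZ knock-in pups. Screening hits then went to dose-response, western blotting and a myostatin counterscreen.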

Row | SMILES | Results in α7+/− β-galactosidase assay (0.5 uM) | Results in α7+/− β-galactosidase assay (1 uM) | Results in α7+/− β-galactosidase assay (5 uM) | Results in α7+/− β-galactosidase assay (10 uM) | Results in α7+/− β-galactosidase assay (20 uM) | Results in α7+/− β-galactosidase assay (40 uM)
1 | COc1ccc(OC)c(S(=O)(=O)Nc2c(NC3CCCCC3)c3ccccc3oc2=O)c1 [drawing 656] | −0.2127 | −0.1212 | 0.2955 | −0.031 | −0.2083 | −0.2716
2 | CC(=O)Nc1ccc(NC(=O)C/C(C)=N/NC(=O)COc2cc(C)c(Br)cc2Br)cc1 [drawing 657] | −0.2303 | −0.07096 | 0.03872 | −0.07468 | −0.3089 | −0.4449
3 | Cc1cccc(Cn2cnc3c(nnn3Cc3ccc(Cl)cc3)c2=O)c1 [drawing 658] | −0.04558 | 0.03537 | 0.1703 | −0.06567 | −0.2167 | −0.3491
4 | CCOc1ccc(Br)cc1S(=O)(=O)Nc1ccc(C(=O)Nc2ccccc2OC)cc1 [drawing 659] | −0.08436 | 0.06885 | 0.1299 | −0.03674 | −0.08958 | −0.05546
5 | O=C(NCc1ccccc1)c1csc(-c2cccnc2)n1 [drawing 660] | −0.1908 | −0.04939 | 0.2247 | 0.1255 | 0.2423 | 0.1166
6 | O=C1C2CCCN2C(=O)N1CCCN1CCN(c2cccc(Br)c2)CC1 (stereo not drawn) [drawing 661] | 0.07667 | 0.0555 | 0.04982 | 0.05028 | 0.1016 | 0.1941
7 | C=CCc1c(C)nc(-c2ccccc2)nc1N/N=C(\C)c1ccc(N)cc1 [drawing 662] | −0.00814 | −0.05498 | 0.04244 | 0.0834 | −0.05956 | −0.02989
8 | CC(C)(C)c1csc(NC(=O)c2cccnc2)n1 [drawing 663] | 0.2482 | 0.1813 | 0.09125 | 0.06663 | −0.2863 | −0.3378
9 | Cc1ccccc1/C=C1\C(=O)Nc2ccc(F)cc21 [drawing 664] | 0.2562 | 0.1979 | 0.05318 | 0.04838 | −0.109 | −0.1352
10 | Cc1ccc2c(c1)/C(=C/c1ccccc1)C(=O)N2 [drawing 665] | 0.07717 | 0.02304 | 0.03576 | 0.07323 | −0.484 | −0.5725
11 | COC(=O)c1ccccc1CC(=O)CSc1nc(O)c(-c2ccccc2)c(O)n1 [drawing 666] | 0.06548 | 0.01829 | 0.06613 | 0.1141 | 0.0713 | 0.08837
12 | Cc1ccc2c(c1)/C(=C/c1ccccc1F)C(=O)N2 [drawing 667] | −0.02616 | 0.02782 | −0.04422 | −0.06595 | −0.1695 | −0.3533
13 | CC(=O)Nc1ccc(-n2c(C)nc(=O)c(-c3ccccc3)c2C)cc1 [drawing 668] | 0.06264 | −0.004 | −0.1843 | −0.1948 | −0.4829 | −0.7384
14 | CCc1nc2ccccc2c(C(=O)NCc2ccccc2)c1C [drawing 669] | 0.09233 | 0.1045 | 0.3581 | −0.08672 | 0.0466 | 0.1074
15 | CCOC(=O)c1cc(-c2cccs2)nc2c1c(C)nn2-c1ccccn1 [drawing 670] | 0.09738 | 0.1342 | −0.1204 | −0.2068 | −0.3072 | −0.5198
16 | CN1CCN(c2ccccc2/C=C2\C(=O)Nc3ccccc32)CC1 [drawing 671] | 0.1788 | 0.04505 | −0.08497 | −0.09387 | −0.1256 | −0.3824
17 | COC(=O)c1cc(S(=O)(=O)NCC2CCN(Cc3ccc(Cl)cc3)CC2)cn1C [drawing 672] | 0.2815 | 0.1861 | −0.03678 | −0.03865 | 0.1247 | 0.0618
18 | COc1ccc(C(=O)Cn2nnc(-c3ccccc3NC(=O)c3ccco3)n2)cc1 [drawing 673] | 0.4054 | 0.1958 | −0.2666 | −0.3483 | −0.6016 | −0.7762
19 | N#Cc1nc(COc2ccccc2)oc1N1CCCC1 [drawing 674] | 0.189 | 0.0825 | −0.1343 | −0.1744 | −0.09766 | −0.3419
20 | CCCc1nnc(SCC(=O)NC2CCCC2)n1CCOC [drawing 675] | 0.1622 | 0.07572 | −0.08939 | −0.107 | −0.1998 | −0.413
21 | Nc1cccc(/C=C/C(=O)O)c1 [drawing 676] | 0.1361 | 0.05647 | −0.05605 | 0.2478 | −0.08666 | −0.2769
22 | CCCC1C(c2cc(OC)c(OC)c(OC)c2)=Nc2c1c(=O)[nH]c(=O)n2Cc1ccccc1 (stereo not drawn) [drawing 677] | 0.221 | 0.193 | −0.1488 | 0.1807 | −0.03424 | −0.4586
23 | CC(C)(C)c1ccc(C(=O)OCC(=O)Nc2sc3c(c2C#N)CCC3)cc1 [drawing 678] | 0.2055 | 0.1005 | 0.3001 | −0.02658 | 0.3137 | 0.2257

From patent US10028992B2, “Methods of treating muscular dystrophy” (BOARD OF REGENTS OF THE NEVADA SYSTEM OF HIGHER EDUCATION …, priority 2012, dated 2018)
